In brackets after ≈: the same amount, converted by molar mass.
Assays:
Type in all cases: functional
[1] = tested on: Radical scavenging activity; experiment: Antioxidant activity of the compound assessed as DPPH radical scavenging activity after 30 min
[2] = tested on: Radical scavenging activity; experiment: Antioxidant activity of the compound assessed as DPPH radical scavenging activity at 10 ug/ml after 30 min
[3] = tested on: Radical scavenging activity; experiment: Antioxidant activity of the compound assessed as DPPH radical scavenging activity at 6 ug/ml after 30 min
[4] = tested on: Radical scavenging activity; experiment: Antioxidant activity of the compound assessed as DPPH radical scavenging activity at 8 ug/ml after 30 min
[5] = tested on: Radical scavenging activity; experiment: Antioxidant activity of the compound assessed as DPPH radical scavenging activity at 2 ug/ml after 30 min
[6] = tested on: Radical scavenging activity; experiment: Antioxidant activity of the compound assessed as DPPH radical scavenging activity at 4 ug/ml after 30 min

IC50 [1] | Compound | inhibition [2] | inhibition [3] | inhibition [4] | inhibition [5] | inhibition [6]
12.47 µg/mL (≈ 46.5 µM) | O=[N+]([O-])c1ccc(-c2nnc(-c3ccncc3)o2)cc1 | 39.8% | 23.2% | 31.5% | 6.66% | 14.9%
12.08 µg/mL (≈ 50.7 µM) | Nc1ccc(-c2nnc(-c3ccncc3)o2)cc1 | 41.4% | 24.8% | 33.1% | 8.27% | 16.5%
5.68 µg/mL (≈ 32.3 µM) | O=C1O[C@H]([C@@H](O)CO)C(O)=C1O [ASCORBIC ACID] | 87.3% | 53.2% | 69.3% | 18.2% | 35.3%
9.01 µg/mL (≈ 35 µM) | Clc1ccc(-c2nnc(-c3ccncc3)o2)cc1 | 53.8% | 39% | 43.6% | 12.8% | 24.4%
16.04 µg/mL (≈ 56.8 µM) | Nc1ccccc1-c1nnc(-c2cccc([N+](=O)[O-])c2)o1 | 30.8% | 19.7% | 25.2% | 5.51% | 14.2%
6.99 µg/mL (≈ 26.1 µM) | O=[N+]([O-])c1cccc(-c2nnc(-c3ccncc3)o2)c1 | 71.2% | 42.5% | 57.7% | 15% | 28.7%
7.76 µg/mL (≈ 30.8 µM) | Nc1ccccc1-c1nnc(-c2ccccc2N)o1 | 64% | 38.6% | 52.1% | 12.1% | 25.8%
8.26 µg/mL (≈ 30.4 µM) | Nc1ccccc1-c1nnc(-c2ccc(Cl)cc2)o1 | 59.5% | 36.2% | 50% | 12.3% | 23.5%
6 µg/mL (≈ 22.4 µM) | Cc1cccc(-c2nnc(-c3ccccc3N)o2)c1O | 81.9% | 48.8% | 64.9% | 15.9% | 31.9%
20.05 µg/mL (≈ 74.7 µM) | Nc1ccc(-c2nnc(-c3ccccc3N)o2)c(O)c1 | 24.9% | 14.9% | 19.9% | 4.98% | 9.97%
